Where two headings read alike, the source gives them in different places.
Experiments:
HIV-1 = assay: Inhibition of HIV-1 infectivity (p24 ELISA) in MT-2 cells, laboratory-adapted HIV-1 strains; format: cell-based; details: Human immunodeficiency virus 1, MT2, 96 h, MT-2 cells, p24 ELISA day 4
Procedure: AZT was used as a positive control in the infectivity assays. In brief, 1×10^4 MT-2 cells (lymphocytes) were infected with HIV-1 at 100 TCID50 (50% tissue culture infective dose, 0.01 MOI [multiplicity of infection]) in 200 μL RPMI 1640 medium containing 10% FBS in the presence or absence of small molecules at graded concentrations overnight. The culture supernatants were then removed and fresh media containing freshly prepared test compounds were added. On the fourth day post-infection, 100 μL of culture supernatants were collected from each well, mixed with equal volume of 5% TRITON X-100® and tested for p24 antigen by ELISA®.

[1] = XTT cytotoxicity assay in MT-2 cells; format: cell-based; details: human, cell type not given
Procedure: Briefly, for MT-2 cells, 100 μL of small molecule at graded concentrations was added to an equal volume of cells (5×10^4 cells/ml) in 96-well plates followed by incubation at 37° C. for 4 days, which ran parallel to the neutralization assay in MT-2 (except medium was added instead of virus). In the case of PBMC, 2.5×10^5 cells/mL were used and the cytotoxicity was measured after 7 days. After addition of XTT (PolySciences, Inc.), the soluble intracellular formazan was quantitated calorimetrically at 450 nm 4 hours later with a reference at 620 nm. The CC50 values were calculated.

[2] = read-out: IC50 (concentration that provides 50% inhibition of HIV-1 p24), Table 1, formula I
[3] = Table 1, formula I, read-out: CC50 (concentration that causes 50% cytotoxicity)
[4] = Table 2, formula II, read-out: CC50

## Cc1ccc2[nH]c(=O)c(CN(Cc3ccco3)C(=O)c3ccccc3Br)cc2c1 [NYAD-S90]
HIV-1; [2]
  IC50: > 10 µM
[1]; [3]
  CC50: > 10 µM

## Cc1cc2cc(CN(Cc3ccco3)C(=O)C3CCCCC3)c(=O)[nH]c2cc1C [NYAD-S43]
HIV-1; [2]
  IC50: > 10 µM
[1]; [3]
  CC50: > 10 µM

## CCOc1ccc2[nH]c(=O)c(CN(Cc3ccco3)C(=O)c3ccc(C(C)(C)C)cc3)cc2c1 [NYAD-S108]
HIV-1; [2]
  IC50: > 10 µM
[1]; [3]
  CC50: > 10 µM

## Cc1cccc2cc(CN(Cc3ccco3)C(=O)N3CCOCC3)c(=O)[nH]c12 [NYAD-S51]
HIV-1; [2]
  IC50: > 10 µM
[1]; [3]
  CC50: > 10 µM

## CCOc1ccc2[nH]c(=O)c(CN(Cc3ccco3)C(=O)c3ccco3)cc2c1 [NYAD-S106]
HIV-1; [2]
  IC50: > 10 µM
[1]; [3]
  CC50: > 10 µM

## COc1ccc2cc(CN(Cc3ccc4c(c3)OCO4)C(=S)Nc3ccc(C)cc3)c(=O)[nH]c2c1 [NYAD-S2]
HIV-1; [2]
  IC50: > 10 µM
[1]; [3]
  CC50: > 10 µM

## Cc1ccc(NCC(O)Cn2c3ccccc3n3c(=O)cc(C)c(C#N)c23)cc1 (stereo not drawn) [NYAD-S52]
HIV-1; Table 2, formula II
  IC50: > 10 µM
[1]; [4]
  CC50: > 10 µM

## Cc1cc(=O)n2c3ccccc3n(CC(O)CN3CCOCC3)c2c1C#N (stereo not drawn) [NYAD-S13]
HIV-1; Table 2, formula II
  IC50: > 10 µM
[1]; [4]
  CC50: > 10 µM

## Cc1ccc2[nH]c(=O)c(CN(Cc3ccccc3)C(=O)c3ccco3)cc2c1 [NYAD-S37]
HIV-1; [2]
  IC50: < 10 µM
[1]; [3]
  CC50: > 10 µM

## Cc1cc(=O)n2c3ccccc3n(CC(O)CNc3ccc(C(C)C)cc3)c2c1C#N (stereo not drawn) [NYAD-S59]
HIV-1; Table 2, formula II
  IC50: < 10 µM
[1]; [4]
  CC50: < 10 µM

## Cc1cc(C)c2[nH]c(=O)c(CN(Cc3ccco3)C(=O)c3ccco3)cc2c1 [NYAD-S101]
HIV-1; [2]
  IC50: > 10 µM
[1]; [3]
  CC50: > 10 µM

## Cc1ccc2cc(CN(Cc3ccccc3)C(=O)c3ccco3)c(=O)[nH]c2c1C [NYAD-S48]
HIV-1; [2]
  IC50: > 10 µM
[1]; [3]
  CC50: > 10 µM

## Cc1cccc2cc(CN(Cc3ccco3)C(=O)c3ccc(C(C)(C)C)cc3)c(=O)[nH]c12 [NYAD-S23]
HIV-1; [2]
  IC50: > 10 µM
[1]; [3]
  CC50: > 10 µM

## Cc1cccc2cc(CN(Cc3ccco3)C(=O)c3ccc(F)cc3)c(=O)[nH]c12 [NYAD-S33]
HIV-1; [2]
  IC50: > 10 µM
[1]; [3]
  CC50: > 10 µM

## Cc1ccc(CN(Cc2cc3cc(C)ccc3[nH]c2=O)C(=O)c2ccco2)cc1 [NYAD-S121]
HIV-1; [2]
  IC50: < 10 µM
[1]; [3]
  CC50: > 10 µM

## Cc1ccc(C(=O)N(Cc2ccco2)Cc2cc3cccc(C)c3[nH]c2=O)cc1 [NYAD-S122]
HIV-1; [2]
  IC50: < 10 µM
[1]; [3]
  CC50: < 10 µM

## Cc1cccc2cc(CN(Cc3ccco3)C(=O)c3cccnc3)c(=O)[nH]c12 [NYAD-S30]
HIV-1; [2]
  IC50: > 10 µM
[1]; [3]
  CC50: > 10 µM

## Cc1ccc2[nH]c(=O)c(CN(Cc3ccco3)C(=O)c3ccc(C(C)(C)C)cc3)cc2c1 [NYAD-S91]
HIV-1; [2]
  IC50: > 10 µM
[1]; [3]
  CC50: > 10 µM

## CCc1ccc2[nH]c(=O)c(CN(Cc3ccco3)C(=O)c3ccc(C(C)(C)C)cc3)cc2c1 [NYAD-S110]
HIV-1; [2]
  IC50: > 10 µM
[1]; [3]
  CC50: > 10 µM

## CCOc1ccc2[nH]c(=O)c(CN(Cc3ccco3)C(=O)c3ccc(Br)cc3)cc2c1 [NYAD-S94]
HIV-1; [2]
  IC50: > 10 µM
[1]; [3]
  CC50: > 10 µM

## Cc1cc(=O)n2c3ccccc3n(CC(O)CN3CCCCC3)c2c1C#N (stereo not drawn) [NYAD-S12]
HIV-1; Table 2, formula II
  IC50: > 10 µM
[1]; [4]
  CC50: > 10 µM

## Cc1ccc2[nH]c(=O)c(CN(Cc3ccc(Cl)cc3)C(=O)c3ccccc3)cc2c1 [NYAD-S98]
HIV-1; [2]
  IC50: > 10 µM
[1]; [3]
  CC50: > 10 µM

## CCc1ccc2[nH]c(=O)c(CN(Cc3ccco3)C(=O)c3ccccc3)cc2c1 [NYAD-S99]
HIV-1; [2]
  IC50: > 10 µM
[1]; [3]
  CC50: > 10 µM

## Cc1ccc2[nH]c(=O)c(CN(Cc3ccco3)C(=O)c3ccccc3)cc2c1 [NYAD-S45]
HIV-1; [2]
  IC50: < 10 µM
[1]; [3]
  CC50: > 10 µM

## CCOc1ccc2[nH]c(=O)c(CN(Cc3ccco3)C(=O)c3ccccc3Cl)cc2c1 [NYAD-S89]
HIV-1; [2]
  IC50: > 10 µM
[1]; [3]
  CC50: > 10 µM

## COc1ccc(C(=O)N(Cc2ccco2)Cc2cc3cc(C)ccc3[nH]c2=O)cc1OC [NYAD-S41]
HIV-1; [2]
  IC50: > 10 µM
[1]; [3]
  CC50: > 10 µM

## Cc1ccc(C)c2[nH]c(=O)c(CN(Cc3ccco3)C(=O)c3ccc(Br)cc3)cc12 [NYAD-S85]
HIV-1; [2]
  IC50: > 10 µM
[1]; [3]
  CC50: > 10 µM

## Cc1cc(=O)n2c3ccccc3n(CC(O)CN3CCC(C)CC3)c2c1C#N (stereo not drawn) [NYAD-S64]
HIV-1; Table 2, formula II
  IC50: > 10 µM
[1]; [4]
  CC50: > 10 µM

## COc1ccccc1C(=O)N(Cc1ccco1)Cc1cc2ccc(C)cc2[nH]c1=O [NYAD-S29]
HIV-1; [2]
  IC50: > 10 µM
[1]; [3]
  CC50: > 10 µM

## Cc1ccc2[nH]c(=O)c(CN(Cc3ccc(F)cc3)C(=O)c3ccco3)cc2c1 [NYAD-S96]
HIV-1; [2]
  IC50: > 10 µM
[1]; [3]
  CC50: > 10 µM

## Cc1cccc2cc(CN(Cc3ccccc3)C(=O)c3ccco3)c(=O)[nH]c12 [NYAD-S22]
HIV-1; [2]
  IC50: > 10 µM
[1]; [3]
  CC50: > 10 µM

## Cc1cccc2cc(CN(Cc3ccco3)C(=O)c3ccccc3)c(=O)[nH]c12 [NYAD-S21]
HIV-1; [2]
  IC50: < 10 µM
[1]; [3]
  CC50: > 10 µM

## Cc1cccc2cc(CN(Cc3ccccc3)C(=O)c3cccc(Cl)c3)c(=O)[nH]c12 [NYAD-S35]
HIV-1; [2]
  IC50: > 10 µM
[1]; [3]
  CC50: > 10 µM

## Cc1cccc2cc(CN(Cc3ccco3)C(=O)c3ccccc3F)c(=O)[nH]c12 [NYAD-S32]
HIV-1; [2]
  IC50: > 10 µM
[1]; [3]
  CC50: > 10 µM

## CCc1ccc2[nH]c(=O)c(CN(Cc3cccnc3)C(=S)NCC3CCCO3)cc2c1 (stereo not drawn) [NYAD-S3]
HIV-1; [2]
  IC50: > 10 µM
[1]; [3]
  CC50: > 10 µM

## CCc1ccc(NCC(O)Cn2c3ccccc3n3c(=O)cc(C)c(C#N)c23)cc1 (stereo not drawn) [NYAD-S60]
HIV-1; Table 2, formula II
  IC50: > 10 µM
[1]; [4]
  CC50: < 10 µM

## Cc1ccc2cc(CN(Cc3ccco3)C(=O)c3cccc(F)c3)c(=O)[nH]c2c1 [NYAD-S81]
HIV-1; [2]
  IC50: < 10 µM
[1]; [3]
  CC50: > 10 µM

## Cc1ccc2[nH]c(=O)c(CN(Cc3ccco3)C(=O)c3ccc(Cl)c(N4CCCCC4)c3)cc2c1 [NYAD-S6-8]
HIV-1; [2]
  IC50: < 10 µM
[1]; [3]
  CC50: > 10 µM

## COc1ccc2[nH]c(=O)c(CN(Cc3ccco3)C(=O)c3ccc(C)cc3)cc2c1 [NYAD-S100]
HIV-1; [2]
  IC50: < 10 µM
[1]; [3]
  CC50: > 10 µM

## Cc1ccc2[nH]c(=O)c(CN(Cc3ccco3)C(=O)c3ccc(Br)cc3)cc2c1 [NYAD-S36]
HIV-1; [2]
  IC50: < 10 µM
[1]; [3]
  CC50: > 10 µM

## CCC(=O)N(Cc1ccco1)Cc1cc2cc(C)ccc2[nH]c1=O [NYAD-S20]
HIV-1; [2]
  IC50: > 10 µM
[1]; [3]
  CC50: > 10 µM

## Cc1ccc(C(=O)N(Cc2ccco2)Cc2cc3ccc(C)cc3[nH]c2=O)cc1 [NYAD-S92]
HIV-1; [2]
  IC50: > 10 µM
[1]; [3]
  CC50: > 10 µM

Source: US8299093B2, “Small molecule inhibitors of retroviral assembly and maturation” (New York Blood Center, Inc., priority 2008, dated 2012)
